The NIST ThermoML archive (doi:10.1016/j.jct.2007.01.012)
± gives the expanded uncertainty stated by the source.

Details: 101.33 kPa, Liquid

CCn1cc[n+](C)c1.COCCOCCOS(=O)(=O)[O-] [1-ethyl-3-methylimidazolium 2-(2-methoxyethoxy) ethylsulfate]
mass density (298.15 K): 1236.5 ± 2.9 kg/m3 | mass density (303.15 K): 1232.6 ± 2.9 kg/m3 | mass density (313.15 K): 1225.6 ± 2.8 kg/m3

CO [methanol]
mass density (298.15 K): 786.7 ± 1.4 kg/m3 | mass density (303.15 K): 782 ± 1.4 kg/m3 | mass density (313.15 K): 772.7 ± 1.4 kg/m3
